Measurements reported in patent US4758586A, “Indolyl compounds and hyposensitivity use thereof” (USV Pharmaceutical Corp., priority 1986, dated 1988).

Experiments:
cyclooxygenase = experiment: Production of TXB2 and PGF2 α in rat peritoneal leukocyte homogenate (cyclooxygenase); type: biochemical; details: read-out: Cyclox, I50
Description: Another assay has been developed to test the ability of the invented compounds on the activity of cyclooxygenase, which is one of the enzymes metabolizing arachidonic acids. By-products of arachidonic acid metabolism include thromboxanes, a type of which is designated as TXB2, and protoglandins, a class of which is known as PGF2 α. As indicated, supra, these by-products promote inflammatory response to a host of offending stimuli. The following protocol describes a procedure for testing the inhibitory effect on the production of TXB2 and PGF2 α.
Protocol for Detecting the Production of TXB2 and PGF2 α.
A suspension of glycogen elicited rat peritoneal leukocyte-homogenate in buffer is incubated with (^14 C)-arachidonic acid (AA), epinephrine and glutathione for 30 minutes at 37°. The reaction is quenched with 2M citric acid, and a trace amount of (^3 H)-TXB2 and an excess of unlabeled TXB2 and PGF2 α are added to each tube. […] Strips containing the spots are cut out, placed in scintillation vials and the radioactive content is quantitated in a liquid scintillation spectrometer.
After adjusting for the extraction efficiency, the amount (pmole) of (^14 C)-TXB2 and PGF2 α in each of the tubes is calculated. […] The ability of the test compounds to modulate the activity of this enzyme is determined by a decrease or increase in the net amount of TXB2 and PGF2 α produced.

5-lipoxygenase = target: T1, 5-lipoxygenase (Rattus norvegicus, UniProt P12527); experiment: Protocol for detecting inhibitors of the lipoxygenase pathway (5-HETE formation in rat neutrophils); type: cell-based; details: rat PMN, [14C]-arachidonic acid + A23187, 5-HETE; read-out: LOX, (RAT PMN) I50
T1 construct: A suspension of rat neutrophils in buffer; endogenous in cells; host or cells: rat neutrophils (PMN)
T1 sequence (P12527 1-673): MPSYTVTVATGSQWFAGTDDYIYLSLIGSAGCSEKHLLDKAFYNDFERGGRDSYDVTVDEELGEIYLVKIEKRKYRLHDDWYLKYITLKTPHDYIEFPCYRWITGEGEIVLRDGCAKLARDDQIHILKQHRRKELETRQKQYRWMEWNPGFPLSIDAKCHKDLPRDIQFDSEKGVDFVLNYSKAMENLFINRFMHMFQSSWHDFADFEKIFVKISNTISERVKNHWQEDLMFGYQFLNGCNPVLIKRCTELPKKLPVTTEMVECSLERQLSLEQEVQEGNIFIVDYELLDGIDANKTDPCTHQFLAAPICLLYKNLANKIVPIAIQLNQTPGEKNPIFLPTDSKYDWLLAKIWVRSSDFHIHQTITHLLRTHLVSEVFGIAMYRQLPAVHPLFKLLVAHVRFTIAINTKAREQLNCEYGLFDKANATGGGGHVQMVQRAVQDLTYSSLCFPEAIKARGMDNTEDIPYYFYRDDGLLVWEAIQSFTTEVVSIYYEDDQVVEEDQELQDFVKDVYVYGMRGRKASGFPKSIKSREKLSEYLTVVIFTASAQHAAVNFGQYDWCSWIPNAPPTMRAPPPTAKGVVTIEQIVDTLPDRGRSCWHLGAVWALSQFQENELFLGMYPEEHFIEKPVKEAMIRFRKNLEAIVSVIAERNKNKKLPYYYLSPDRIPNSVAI
Method: Protocol for Detecting Inhibitors of the Lipoxygenase Pathway
A suspension of rat neutrophils in buffer is incubated for 3 minutes at 30° C. with [^14 C]-arachidonic acid (AA) and Calcium Ionophore A23187. Citric acid (2M) is used to quench the reaction. Following the addition of a trace amount of (^3 H)-5-HETE together with an excess of unlabeled 5-HETE to each tube, the mixture is extracted with chloroform/methanol. The organic layer is washed with dilute acid and an aliquot is transferred to glass tubes and dried. The residue is dissolved in a small volume of chloroform and an aliquot is spotted on silica get TLC sheets, which are developed with an ethyl acetate/isooctane/water acetic acid solvent system. The 5-HETE spots are visualized with iodine, cut out and placed in scintillation vials for counting. After adjusting for the extraction efficiency, the amount (pmole) of [^14 C]-5-HETE in each of the tubes is quantitated. The net pmoles of 5-HETE are obtained by subtracting the pmoles of 5-HETE in the tubes containing […]. The ability of the test compounds to modulate the activity of this enzyme is determined by a decrease or increase in the net amount of 5-HETE produced.

`CCC(=CC=Cc1cn(Cc2ccccc2)c2ccccc12)C(=O)O` [Example 9, 5-(1-Benzylindol-3-yl)-2-Ethyl-2,4-Pentadienoic Acid] showed an IC50 (cyclooxygenase) of 15 µM and an IC50 (5-lipoxygenase) of 2.3 µM.
